In brackets after ≈: the same amount, converted by molar mass. Entries after “also recorded” stand apart in the source; their conditions may differ. Like-named read-outs stand apart in the source and are kept apart here.
Tests used:
[1] = tested on: P. yoelii luciferase expressing parasites (PyXNL non-lethal strain, luc+); experiment: Protection against P. yoelii sporozoite-induced infection in mice (bioluminescence imaging); assay type: in vivo, Plasmodium yoelii
Protocol: Animals receiving an im injection of 30 mg/kg ELQ-331 in sesame oil were challenged by inoculation with 10,000 P. yoelii luciferase expressing parasites (PyXNL non-lethal strain, luc^+) at two different time points, 48 days and 137 days post im injection (Note that separate groups of mice were used for these two challenges). For details of our experimental methods please refer to the work proposed section as well as published papers by Qigui Li (17) and Kami Kim (18). Sporozoites were obtained by dissection of infected mosquitoes, A. stephensi, and purification over glass wool with assistance from Dr. Brandon Wilder (formerly Sack), who recently joined the OHSU faculty (see letter of collaboration). Non-invasive whole animal
Bioluminescence imaging (BLI) was used to evaluate all study animals for the presence of liver stage infection using an IVIS Spectrum imager. Briefly, on the day of analysis mice received a single ip injection with a luciferin solution roughly 10 minutes before imaging. Each animal was placed on the IVIS platform with gaseous isoflurane serving as anesthetic. […] Of interest, we also challenged animals that had received an im injection (dissolved in sesame oil) of two similar ELQ-300 prodrugs, PSPS-173 and PSP6-16F.
Bioluminescent imaging (FIG. 2) was used to analyze the protective effect of im ELQ-300 prodrugs on Plasmodium yoelii liver stages. Mice were infected by inoculation with 10,000 Plasmodium yoelii GFP/luciferase expressing parasites (PyXNL non-lethal strain, luc*). As described in the narrative infected mice received sporozoite injections 48 days and 137 days following im injection with selected ELQ-300 prodrugs dissolved in sesame oil. After sporozoite challenge, mice underwent imaging for detection of bioluminescent signal after 24 and 48 hours and then again on Day 6 post-inoculation. Control mice show bioluminescent signal in the region above the liver of anesthetized mice after 24 hours which becomes more intense by 48 hours after which parasites emerge into the bloodstream as evidenced by widespread signal intensity across the entire animal by 6-days post inoculation.

[2] = Estimation of compound solubility in sesame oil; assay type: physicochemical; details: room temperature, remained in solution for at least 72 hrs; for solubility: sesame oil, oil or lipid, thermodynamic from solid
Protocol: Generalized method for estimation of compound solubility in sesame oil: Sesame oil (10 μl) was dispensed into a glass vial containing 10 mg of the appropriate ELQ-300 prodrug. The mixture was vortexed and warmed (using a heat gun) to aid dissolution. The solubility of the compound was judged after the sesame oil mixture cooled to room temperature. If the compound was not completely dissolved, additional sesame oil was added in low-volume increments. Importantly, complete dissolution was assured by confirming by visual inspection that the compound remained in solution for at least 72 hrs at room temperature.

[3] = tested on: patent malaria infections in mice; details: oral drug delivery, single dose; cited from earlier work
[4] = Pharmacokinetics of intramuscular (im) injections of ELQ-300 prodrugs in sesame oil in mice; assay type: in vivo; details: at every time point after im injection, Trial 2
Protocol: We dissolved ELQ-331 in sesame oil and administered (30 mg/kg) in a single […] injection into the caudal thigh of mice in two separate trials. Trial 1 served as a pilot study to monitor ELQ-300 blood levels for months following a single im injection. In Trial 2 we adjusted the LC-MS/MS chromatographic protocol to capture prodrug [ELQ-331] as well as [ELQ-300] with early time-points to cover the critical burst phase, a phenomenon known as “dose dumping”. […] In Trial 2, we monitored plasma [ELQ-331] and [ELQ-300] starting 6 hours after im injection. To avoid excessive blood draws, 6 different groups of 4 mice, all treated at the same time, were used in a rotating succession, one group for each time point. FIG. 1 depicts Plasma [ELQ-300], nM, following im injection in mice of 30 mg/kg ELQ-331 (prodrug) in sesame oil. […] At all time-points the [ELQ-300] concentration exceeds the Minimum Fully Effective Concentration (MEC100) of ≈60 nM. All data points are the average values±SEM.
Also shown in FIG. 5 is a composite plot of plasma [ELQ-300] from both trials with remarkable consistency in the results. ELQ-331 outperformed the CALIBR ELQ-300 prodrug (mCAR246) profiled at the 2017 ASTMH meeting by a significant margin, i.e., Day 28 bloodstream [ELQ-300] levels for mCAR246=181±59 (30 mg/kg, unknown formulation) vs. 446±22 nM (avg.±SEM) for prodrug ELQ-331 in (30 mg/kg, sesame oil).

ATV resistant parasites = details: cited from earlier work
[5] = rat microsomes; cited from earlier work
[6] = cited by Chatterjee, CALIBR model system; cited from earlier work
[7] = mouse microsomes; cited from earlier work
[8] = tested on: multidrug resistant P. falciparum strains; details: cited from earlier work
[9] = human microsomes; cited from earlier work
P. falciparum cyt bc1 = P. falciparum cyt bc1 (Plasmodium falciparum, UniProt Q02768); details: cited from earlier work
Sequence of P. falciparum cyt bc1 (Q02768 whole entry): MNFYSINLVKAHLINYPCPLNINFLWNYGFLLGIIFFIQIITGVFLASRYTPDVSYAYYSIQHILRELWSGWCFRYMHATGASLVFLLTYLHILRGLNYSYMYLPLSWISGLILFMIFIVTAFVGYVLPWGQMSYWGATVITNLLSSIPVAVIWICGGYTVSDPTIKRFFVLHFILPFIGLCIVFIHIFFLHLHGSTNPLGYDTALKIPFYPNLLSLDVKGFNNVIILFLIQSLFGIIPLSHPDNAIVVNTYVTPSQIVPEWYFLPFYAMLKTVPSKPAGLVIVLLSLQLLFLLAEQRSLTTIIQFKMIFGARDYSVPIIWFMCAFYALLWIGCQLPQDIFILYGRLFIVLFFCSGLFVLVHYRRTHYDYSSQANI

malaria-infected mice = details: cited from earlier work
[10] = challenge 137 days (4½ months) after single im injection in sesame oil

SMILES: CCCCCCCOC(=O)OCOc1c(-c2ccc(Oc3ccc(OC(F)(F)F)cc3)cc2)c(C)nc2cc(OC)c(Cl)cc12 [PSP5-173]
- protection against sporozoite challenge [1, 10]: partially protected
- mice that developed blood stage infection ([1]; challenge 137 days after im injection): One of three

SMILES: CCCCCCCCCOC(=O)OCOc1c(-c2ccc(Oc3ccc(OC(F)(F)F)cc3)cc2)c(C)nc2cc(OC)c(Cl)cc12 [ELQ-494]
- Sesame Oil Solubility [2]: 333 mg/mL

SMILES: CCCCCCCOC(=O)OCOc1c(-c2ccc(Oc3ccc(OC(F)(F)F)cc3)cc2)c(C)nc2cc(OC)c(Cl)cc12 [ELQ-492, ((6-chloro-7-methoxy-2-methyl-3-(4-(4-(trifluoromethoxy)phenoxy)phenyl)quinolin-4-yl)oxy)methyl heptyl carbonate]
- solubility [2]: 71 mg/mL (≈ 110 mM)

SMILES: CCCCCOC(=O)OCOc1c(-c2ccc(Oc3ccc(OC(F)(F)F)cc3)cc2)c(C)nc2cc(OC)c(Cl)cc12 [ELQ-490, ((6-chloro-7-methoxy-2-methyl-3-(4-(4-(trifluoromethoxy)phenoxy)phenyl)quinolin-4-yl)oxy)methyl pentyl carbonate]
- solubility [2]: 83 mg/mL (≈ 134 mM)
- melting point: 109 °C

SMILES: CCCCCCOC(=O)OCOc1c(-c2ccc(Oc3ccc(OC(F)(F)F)cc3)cc2)c(C)nc2cc(OC)c(Cl)cc12 [ELQ-491, ((6-chloro-7-methoxy-2-methyl-3-(4-(4-(trifluoromethoxy)phenoxy)phenyl)quinolin-4-yl)oxy)methyl hexyl carbonate]
- solubility [2]: 100 mg/mL (≈ 158 mM)
- melting point: 79 °C

SMILES: CCOC(=O)OCOc1c(-c2ccc(Oc3ccc(OC(F)(F)F)cc3)cc2)c(C)nc2cc(OC)c(Cl)cc12 [ELQ-331, ((6-chloro-7-methoxy-2-methyl-3-(4-(4-(trifluoromethoxy)phenoxy)phenyl)quinolin-4-yl)oxy) methyl ethyl carbonate]
- solubility [2]: 125 mg/mL (≈ 216 mM)
- protection against sporozoite challenge ([1]; challenge 48 days after single im injection in sesame oil): fully protected
- protection against sporozoite challenge [1, 10]: complete protection; also recorded: fully protected
- duration of protection in mice with a single im injection ([1]; single im injection): more than 4 months
- bioluminescent signal (liver stage infection) ([1]; sporozoite challenge 48 days after 30 mg/kg im injection (Trial 2)): no detectable bioluminescent signal
- bioluminescent signal (liver stage infection) ([1]; sporozoite challenge 137 days after 30 mg/kg im injection (Trial 1)): no detectable bioluminescent signal
- cure of patent malaria infections in mice [3]: single dose cures
- ratio of ELQ-300/ELQ-331 in plasma [4]: very large

SMILES: COc1cc2[nH]c(C)c(-c3ccc(Oc4ccc(OC(F)(F)F)cc4)cc3)c(=O)c2cc1Cl [ELQ-300, 6-Chloro-7-methoxy-2-methyl-3-[4-[4-(trifluoromethoxy)phenoxy]phenyl]-4(1H)-quinolinone]
- potency vs. ATV resistant parasites (ATV resistant parasites): equal potency
- metabolic stability [5]: metabolically stable
- minimum effective concentration (plasma ELQ-300) [6]: 83 nM
- metabolic stability [7]: metabolically stable
- IC50's vs. multidrug resistant P. falciparum strains [8]: low nanomolar
- metabolic stability [9]: metabolically stable
- selectivity for the parasite over the host cyt bc1 (P. falciparum cyt bc1): 10,000 fold
- ED50 (malaria-infected mice; 4-day Peters Test): 0.02 mg/kg
- curative dose (malaria-infected mice; 4-day Peters Test): 0.3 to 1 mg/kg
- fold more effective than ATV in vivo in treatment of malaria-infected mice (malaria-infected mice; relative to ATV): 30 fold

SMILES: COC(=O)OCOc1c(-c2ccc(Oc3ccc(OC(F)(F)F)cc3)cc2)c(C)nc2cc(OC)c(Cl)cc12 [ELQ-487]
- Sesame Oil Solubility [2]: 91 mg/mL

SMILES: CCCCCCCCCCOC(=O)OCOc1c(-c2ccc(Oc3ccc(OC(F)(F)F)cc3)cc2)c(C)nc2cc(OC)c(Cl)cc12 [ELQ-495, ((6-chloro-7-methoxy-2-methyl-3-(4-(4-(trifluoromethoxy)phenoxy)phenyl)quinolin-4-yl)oxy)methyl decyl carbonate]
- solubility [2]: ≥ 500 mg/mL
- melting point: 55 °C

SMILES: CCCCCCCCOC(=O)OCOc1c(-c2ccc(Oc3ccc(OC(F)(F)F)cc3)cc2)c(C)nc2cc(OC)c(Cl)cc12 [ELQ-493, ((6-chloro-7-methoxy-2-methyl-3-(4-(4-(trifluoromethoxy)phenoxy)phenyl)quinolin-4-yl)oxy)methyl octyl carbonate]
- solubility [2]: 100 mg/mL (≈ 151 mM)
- melting point: 54 °C

SMILES: CCCCOC(=O)OCOc1c(-c2ccc(Oc3ccc(OC(F)(F)F)cc3)cc2)c(C)nc2cc(OC)c(Cl)cc12 [ELQ-489]
- Sesame Oil Solubility [2]: 71 mg/mL

SMILES: CCCOC(=O)OCOc1c(-c2ccc(Oc3ccc(OC(F)(F)F)cc3)cc2)c(C)nc2cc(OC)c(Cl)cc12 [ELQ-488]
- Sesame Oil Solubility [2]: 83 mg/mL
